Results taken from patent US11192899B2 (MERCK PATENT GMBH, priority 2017, dated 2021).

Columns and labels:
Assay type in all cases: cell-based
[1] = target: T1, human A3 receptor (Homo sapiens, UniProt P0DMS8); assay: cAMP HTRF functional assay, recombinant CHO cells expressing human A3 receptor, forskolin and agonist IB-MECA
T1 construct: expressed in transfected cells; host or cells: CHO
T1 sequence (P0DMS8 1-318): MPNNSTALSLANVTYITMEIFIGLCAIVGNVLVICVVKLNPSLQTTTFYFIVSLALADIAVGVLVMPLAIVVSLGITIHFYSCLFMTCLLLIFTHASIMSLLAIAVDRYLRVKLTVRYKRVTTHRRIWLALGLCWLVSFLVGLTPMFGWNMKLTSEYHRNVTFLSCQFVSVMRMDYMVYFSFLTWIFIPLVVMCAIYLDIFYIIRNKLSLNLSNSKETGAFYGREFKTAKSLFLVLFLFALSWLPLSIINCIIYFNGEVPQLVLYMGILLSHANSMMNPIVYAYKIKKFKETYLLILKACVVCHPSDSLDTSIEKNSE
Description: (§1) The functional activities of human A2A, A2B, A1 and A3 receptors were determined by quantification of cAMP, being the second messenger for adenosine receptors.
(§2) For human A1 and A3 receptors, recombinant CHO cells, expressing either A1 or A3-receptor, were used. As both receptors couple to Gi proteins, the assay protocol was adapted:
(§3) Cells were seeded into 384-well plates, forskolin, test compounds and agonists (CPA for A1- and IB-MECA for A3-receptor) were added. After 30 min incubation, HTRF reagents (cAMP dynamic 2, Cis Bio) were added and the cellular cAMP levels were determined using the ENVISION (Perkin Elmer) plate reader.
(§4) Obtained raw data were normalized against the inhibitor control and the neural control (DMSO) and the normalized data were fitted using GeneData software.

[2] = target: T2, human A2A receptor (Homo sapiens, UniProt P29274); assay: cAMP HTRF functional assay, recombinant HEK293 cells expressing human A2A receptor, agonist NECA
T2 construct: expressed in transfected cells; host or cells: HEK293
Description: as §1, §4

[3] = target: T3, human A1 receptor (Homo sapiens, UniProt P30542); assay: cAMP HTRF functional assay, recombinant CHO cells expressing human A1 receptor, forskolin and agonist CPA
T3 construct: expressed in transfected cells; host or cells: CHO
T3 sequence (P30542 1-326): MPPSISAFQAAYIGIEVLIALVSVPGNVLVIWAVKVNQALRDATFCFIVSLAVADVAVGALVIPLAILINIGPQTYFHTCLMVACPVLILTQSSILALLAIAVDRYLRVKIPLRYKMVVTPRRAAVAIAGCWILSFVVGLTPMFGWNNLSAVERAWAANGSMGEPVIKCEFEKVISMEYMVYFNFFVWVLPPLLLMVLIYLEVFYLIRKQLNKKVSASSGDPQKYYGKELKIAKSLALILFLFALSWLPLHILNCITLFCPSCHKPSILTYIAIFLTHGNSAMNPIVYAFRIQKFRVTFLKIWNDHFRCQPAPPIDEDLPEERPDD
Description: as §1, §2, §3, §4

[4] = target: T4, A2B receptors (Homo sapiens, UniProt P29275); assay: cAMP HTRF functional assay, recombinant HEK293 cells expressing human A2B receptor, agonist NECA; parameters: expressed in transfected cells; host or cells: HEK293
T4 sequence (P29275 1-332): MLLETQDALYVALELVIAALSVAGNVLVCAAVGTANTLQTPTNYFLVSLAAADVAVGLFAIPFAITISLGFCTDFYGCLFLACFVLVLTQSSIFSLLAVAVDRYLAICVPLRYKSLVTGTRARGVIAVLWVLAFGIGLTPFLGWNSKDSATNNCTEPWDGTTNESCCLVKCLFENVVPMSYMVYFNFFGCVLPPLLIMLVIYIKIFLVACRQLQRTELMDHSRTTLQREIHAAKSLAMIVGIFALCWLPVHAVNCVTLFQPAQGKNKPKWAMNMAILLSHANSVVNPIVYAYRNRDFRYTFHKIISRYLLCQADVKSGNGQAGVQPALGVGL
Description: as §1, §4

T2 sequence (P29274 whole entry): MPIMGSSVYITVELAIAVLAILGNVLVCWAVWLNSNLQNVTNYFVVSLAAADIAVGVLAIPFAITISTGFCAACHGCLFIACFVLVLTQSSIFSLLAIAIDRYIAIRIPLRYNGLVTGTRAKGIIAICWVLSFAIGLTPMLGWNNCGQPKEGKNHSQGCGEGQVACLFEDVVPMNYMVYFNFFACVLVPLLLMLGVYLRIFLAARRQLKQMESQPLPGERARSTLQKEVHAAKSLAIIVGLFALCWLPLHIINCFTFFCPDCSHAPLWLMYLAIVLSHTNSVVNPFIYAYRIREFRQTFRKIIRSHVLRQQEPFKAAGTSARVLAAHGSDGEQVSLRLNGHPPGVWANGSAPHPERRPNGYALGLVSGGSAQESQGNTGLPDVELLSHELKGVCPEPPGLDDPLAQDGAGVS

Compound	IC50 [1] [nM]	IC50 [2] [nM]	IC50 [3] [nM]	IC50 [4] [nM]
COc1ccc(-c2ccc(F)cc2)c2ncc(NC(=O)c3cnc(C)o3)nc12 [compound 131, N-[5-(4-fluorophenyl)-8-methoxyquinoxalin-2-yl]-2-methyl-1,3-oxazole-5-carboxamide]	< 1000	< 10	< 1000	< 100
COc1ccc(C2=CCOCC2)c2ncc(NC(=O)c3cnc(C)s3)nc12 [compound 134, N-[5-(3,6-dihydro-2H-pyran-4-yl)-8-methoxyquinoxalin-2-yl]-2-methyl-1,3-thiazole-5-carboxamide]	> 1000	< 10	< 1000	< 100
COc1ccc(C2=CCOCC2)c2ncc(NC(=O)c3cnsc3)nc12 [compound 136, N-[5-(3,6-dihydro-2H-pyran-4-yl)-8-methoxyquinoxalin-2-yl]-1,2-thiazole-4-carboxamide]	> 1000	< 10	< 1000	< 100
COc1ccc(-c2cccnc2)c2ncc(NC(=O)c3cnc(C)o3)nc12 [compound 138, N-[8-methoxy-5-(pyridin-3-yl)quinoxalin-2-yl]-2-methyl-1,3-oxazole-5-carboxamide]	> 1000	< 100	< 10	< 100
COc1ccc(C2=CCOC2)c2ncc(NC(=O)C3CC3)nc12 [compound 141, N-[5-(2,5-dihydrofuran-3-yl)-8-methoxyquinoxalin-2-yl]cyclopropanecarboxamide]	< 1000	< 100	< 1000	< 100
CCOC(=O)c1nnc(NC(=O)Nc2cnc3c(C4=CCOCC4)ccc(OC)c3n2)s1 [compound 143, ethyl 5-({[5-(3,6-dihydro-2H-pyran-4-yl)-8-methoxyquinoxalin-2-yl]carbamoyl}amino)-1,3,4-thiadiazole-2-carboxylate]	–	< 100	> 1000	> 1000
COCCOc1cccc(-c2ccc(OC)c3nc(NC(=O)C4CC4)cnc23)c1 [compound 147, N-{8-methoxy-5-[3-(2-methoxyethoxy)phenyl]quinoxalin-2-yl}cyclopropanecarboxamide]	< 1000	< 10	< 1000	< 100
COCCOc1cccc(-c2ccc(OC)c3nc(NC(=O)c4cnc(C)o4)cnc23)c1 [compound 148, N-{8-methoxy-5-[3-(2-methoxyethoxy)phenyl]quinoxalin-2-yl}-2-methyl-1,3-oxazole-5-carboxamide]	> 1000	< 10	< 1000	< 100
COc1ccc(-c2ccccc2)c2ncc(NC(=O)C3(C(=O)N(C)C)CC3)nc12 [compound 149, N′1-(8-methoxy-5-phenylquinoxalin-2-yl)-N1,N1-dimethylcyclopropane-1,1-dicarboxamide]	< 1000	< 100	> 1000	–
COCCOc1cccc(-c2ccc(OC)c3nc(NC(=O)c4cnc(C)s4)cnc23)c1 [compound 151, N-{8-methoxy-5-[3-(2-methoxyethoxy)phenyl]quinoxalin-2-yl}-2-methyl-1,3-thiazole-5-carboxamide]	> 1000	< 100	< 1000	> 1000
COCCOc1cccc(-c2ccc(OC)c3nc(NC(=O)c4nnc(C)s4)cnc23)c1 [compound 152, N-{8-methoxy-5-[3-(2-methoxyethoxy)phenyl]quinoxalin-2-yl}-5-methyl-1,3,4-thiadiazole-2-carboxamide]	> 1000	< 100	–	–
COc1ccc(C2=CCOCC2)c2ncc(NC(=O)c3cnc[nH]3)nc12 [compound 159, N-[5-(3,6-dihydro-2H-pyran-4-yl)-8-methoxyquinoxalin-2-yl]-1H-imidazole-5-carboxamide]	–	< 100	< 1000	< 100
COc1ccc(-c2ccccc2)c2ncc(NC(=O)c3cnc[nH]3)nc12 [compound 160, N-(8-methoxy-5-phenylquinoxalin-2-yl)-1H-imidazole-5-carboxamide]	–	< 100	> 1000	< 100
